From US20160046618A1, “Cyclopropyl Fused Thiazin-2-Amine Compounds as Beta-Secretase Inhibitors and Methods of Use” (AMGEN INC., priority 2014, published 2016)

Legend:
human recombinant BACE1 = human recombinant BACE1 (Homo sapiens (Human), UniProt P56817); test: In vitro enzymatic BACE1 FRET assay; type: biochemical; details: read-out: IC50 IP (μM) BACE1 enzyme
Outline: (§1)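 FRET cleavage assay using Ni-NTA-purified recombinant protease and 50 nM quenched peptide substrate, 1 h. Stopped by neutralising with Tris; fluorescence at 488/590 nm.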

human recombinant BACE2 = human recombinant BACE2 (Homo sapiens (Human), UniProt Q9Y5Z0); test: In vitro enzymatic BACE2 FRET assay; type: biochemical; details: read-out: IC50 IP (μM) BACE2 enzyme
Chain of human recombinant BACE2 (Q9Y5Z0 63-518): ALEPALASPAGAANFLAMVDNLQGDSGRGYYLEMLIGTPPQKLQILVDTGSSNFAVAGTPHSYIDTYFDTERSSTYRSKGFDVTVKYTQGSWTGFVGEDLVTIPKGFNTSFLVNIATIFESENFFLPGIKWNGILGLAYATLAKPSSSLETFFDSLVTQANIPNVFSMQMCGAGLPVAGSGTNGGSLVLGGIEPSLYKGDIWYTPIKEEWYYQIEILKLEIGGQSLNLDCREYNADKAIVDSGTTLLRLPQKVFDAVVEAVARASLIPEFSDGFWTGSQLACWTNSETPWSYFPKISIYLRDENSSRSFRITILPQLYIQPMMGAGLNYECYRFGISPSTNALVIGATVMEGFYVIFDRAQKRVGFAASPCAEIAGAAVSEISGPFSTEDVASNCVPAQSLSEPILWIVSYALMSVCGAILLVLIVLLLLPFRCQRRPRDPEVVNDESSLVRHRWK
Outline: as §1

[1] = tested on: Aβ40 in conditioned medium of cells stably expressing Amyloid Precursor Protein (APP); test: In vitro BACE-1 cell-based assay (Aβ40 sandwich ELISA); details: read-out: IC50 IP (μM) BACE1 cell
Outline: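 APP-stable cells, pre-cultured 24 h at 37° C in DMEM/10% FBS, were treated 24 h with compound in a 10-point series starting at 100 μM or 10 μM (0.1% DMSO final). Secreted Aβ40 in conditioned medium was measured by pAb40/biotin-6E10 sandwich ELISA with Europium time-resolved fluorescence; IC50 from percent inhibition versus concentration.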

Recombinant Cat D = Recombinant Cat D (Homo sapiens (Human), UniProt P07339); test: In vitro enzymatic Cathepsin D (Cat D) FRET assay; type: biochemical; details: read-out: IC50 IP (μM) CatD
Chain of Recombinant Cat D (P07339 65-412): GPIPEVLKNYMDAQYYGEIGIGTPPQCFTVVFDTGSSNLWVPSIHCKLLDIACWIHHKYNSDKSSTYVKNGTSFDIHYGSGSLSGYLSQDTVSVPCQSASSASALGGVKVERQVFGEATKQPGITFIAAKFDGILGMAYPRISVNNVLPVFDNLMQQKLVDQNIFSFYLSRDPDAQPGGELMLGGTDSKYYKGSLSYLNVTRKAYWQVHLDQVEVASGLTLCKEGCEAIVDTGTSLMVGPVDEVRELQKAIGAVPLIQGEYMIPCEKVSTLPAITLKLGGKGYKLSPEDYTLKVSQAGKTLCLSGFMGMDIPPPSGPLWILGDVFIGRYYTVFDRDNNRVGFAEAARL
Outline: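 Recombinant Cat D expressed in CHO cells, assayed in 0.05 M citrate pH 3.5 with 5 mM CHAPS and 10% DMSO final. Reaction started with 20 nM FRET peptide substrate, incubated one hour, then stopped by Tris buffer to neutral pH; fluorescence read at ex 500/em 580 nm.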

Chain of human recombinant BACE1 (P56817 46-501): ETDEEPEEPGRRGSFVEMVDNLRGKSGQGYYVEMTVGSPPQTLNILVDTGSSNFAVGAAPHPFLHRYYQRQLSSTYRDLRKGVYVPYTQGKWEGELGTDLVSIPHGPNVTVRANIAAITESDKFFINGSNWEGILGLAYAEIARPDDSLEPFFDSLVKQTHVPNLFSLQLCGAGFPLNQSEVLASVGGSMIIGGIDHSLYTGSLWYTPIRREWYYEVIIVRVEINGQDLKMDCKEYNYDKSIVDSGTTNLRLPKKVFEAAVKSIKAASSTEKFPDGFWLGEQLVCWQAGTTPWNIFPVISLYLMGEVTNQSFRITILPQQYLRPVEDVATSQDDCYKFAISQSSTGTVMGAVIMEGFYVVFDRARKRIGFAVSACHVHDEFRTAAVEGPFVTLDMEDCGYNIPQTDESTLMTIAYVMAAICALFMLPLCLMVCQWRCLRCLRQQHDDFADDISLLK

C[C@]1(c2cc(Nc3nccc4cc(C#N)cnc34)cnc2F)N=C(N)S[C@@]2(C(F)F)C[C@@H]12 [Example 657, 8-((5-((1S,5S,6S)-3-amino-1-(difluoromethyl)-5-methyl-2-thia-4-azabicyclo[4.1.0]hept-3-en-5-yl)-6-fluoro-3-pyridinyl)amino)-1,7-naphthyridine-3-carbonitrile]
IC50 (human recombinant BACE1): 0.00369 µM | IC50 (human recombinant BACE2): 0.00303 µM | IC50 [1]: 0.00533 µM | IC50 (Recombinant Cat D): 306 µM

C[C@]1(c2cc(Nc3ncnc4cc(C#N)cnc34)cnc2F)N=C(N)S[C@@]2(C(F)F)C[C@@H]12 [Example 658, 4-((5-((1S,5S,6S)-3-amino-1-(difluoromethyl)-5-methyl-2-thia-4-azabicyclo[4.1.0]hept-3-en-5-yl)-6-fluoro-3-pyridinyl)amino)pyrido[3,2-d]pyrimidine-7-carbonitrile]
IC50 (human recombinant BACE1): 0.0107 µM | IC50 (human recombinant BACE2): 0.0293 µM | IC50 [1]: 0.0136 µM | IC50 (Recombinant Cat D): 705 µM

C#CCOc1cnc2c(Nc3cnc(F)c([C@@]4(C)N=C(N)S[C@@]5([C@H](O)C(F)(F)F)C[C@H]54)c3)nccc2n1 [Example 659, (1R)-1-((1S,5S,6S)-3-amino-5-(2-fluoro-5-((2-(2-propyn-1-yloxy)pyrido[3,4-b]pyrazin-5-yl)amino)-3-pyridinyl)-5-methyl-2-thia-4-azabicyclo[4.1.0]hept-3-en-1-yl)-2,2,2-trifluoroethanol]
IC50 (human recombinant BACE1): 0.000774 µM | IC50 (human recombinant BACE2): 0.00425 µM | IC50 [1]: 0.0013 µM | IC50 (Recombinant Cat D): 462 µM

C#CCOc1cnc2c(Nc3cnc(F)c([C@@]4(C)N=C(N)S[C@]5(CO)[C@H]4C5(F)F)c3)nccc2n1 [Example 661, ((1S,5S,6R)-3-amino-7,7-difluoro-5-(2-fluoro-5-((2-(2-propyn-1-yloxy)pyrido[3,4-b]pyrazin-5-yl)amino)-3-pyridinyl)-5-methyl-2-thia-4-azabicyclo[4.1.0]hept-3-en-1-yl)methanol]
IC50 (human recombinant BACE1): 0.000765 µM | IC50 (human recombinant BACE2): 0.00392 µM | IC50 [1]: 0.00244 µM | IC50 (Recombinant Cat D): 795 µM

C[C@]1(c2cc(Nc3nccc4nc(OCc5ncco5)cnc34)cnc2F)N=C(N)S[C@]2(CO)[C@H]1C2(F)F [Example 663, ((1S,5S,6R)-3-amino-7,7-difluoro-5-(2-fluoro-5-((2-(1,3-oxazol-2-ylmethoxy)pyrido[3,4-b]pyrazin-5-yl)amino)-3-pyridinyl)-5-methyl-2-thia-4-azabicyclo[4.1.0]hept-3-en-1-yl)methanol]
IC50 (human recombinant BACE1): 0.00048 µM | IC50 (human recombinant BACE2): 0.0174 µM | IC50 [1]: 0.00338 µM | IC50 (Recombinant Cat D): 601 µM

C[C@]1(c2cc(Nc3ncnc4cc(OCc5ncco5)cnc34)cnc2F)N=C(N)S[C@]2(CO)[C@H]1C2(F)F [Example 664, ((1S,5S,6R)-3-amino-7,7-difluoro-5-(2-fluoro-5-((7-(1,3-oxazol-2-ylmethoxy)pyrido[3,2-d]pyrimidin-4-yl)amino)-3-pyridinyl)-5-methyl-2-thia-4-azabicyclo[4.1.0]hept-3-en-1-yl)methanol]
IC50 (human recombinant BACE1): 0.000274 µM | IC50 (human recombinant BACE2): 0.046 µM | IC50 [1]: 0.0143 µM | IC50 (Recombinant Cat D): > 400 µM

C#CCOc1cnc2c(Nc3cnc(F)c([C@@]4(C)N=C(N)S[C@@]5([C@H](O)C(F)(F)F)C[C@H]54)c3)ncnc2c1 [Example 665, (1R)-1-((1S,5S,6S)-3-amino-5-(2-fluoro-5-((7-(2-propyn-1-yloxy)pyrido[3,2-d]pyrimidin-4-yl)amino)-3-pyridinyl)-5-methyl-2-thia-4-azabicyclo[4.1.0]hept-3-en-1-yl)-2,2,2-trifluoroethanol]
IC50 (human recombinant BACE1): 0.00165 µM | IC50 (human recombinant BACE2): 0.0383 µM | IC50 [1]: 0.00737 µM | IC50 (Recombinant Cat D): 1110 µM

C#CCOc1cnc2c(Nc3cnc(F)c([C@@]4(C)N=C(N)S[C@@]5([C@@H](O)C(F)(F)F)C[C@H]54)c3)ncnc2c1 [Example 666, (1S)-1-((1S,5S,6S)-3-amino-5-(2-fluoro-5-((7-(2-propyn-1-yloxy)pyrido[3,2-d]pyrimidin-4-yl)ammo)-3-pyridinyl)-5-methyl-2-thia-4-azabicyclo[4.1.0]hept-3-en-1-yl)-2,2,2-trifluoroethanol]
IC50 (human recombinant BACE1): 0.00201 µM | IC50 (human recombinant BACE2): 0.177 µM | IC50 [1]: 0.00772 µM | IC50 (Recombinant Cat D): 1690 µM
